In patent US10167262B2, “Herbicidal substituted 3-arylpyrazoles” (FMC CORPORATION, priority 2014, dated 2019):

Columns and labels:
Type in all cases: in vivo
[1] = system: sedge, umbrella (small-flower umbrella sedge, Cyperus difformis); experiment: Test B flooded paddy test, plant response rating 0-100; conditions: Flood, 250 g ai/ha; scale 0 to 100 (0 no effect, 100 complete control); 13 to 15 days
Excerpt: (§1) At time of treatment, test pots were flooded to 3 cm above the soil surface, treated by application of test compounds directly to the paddy water, and then maintained at that water depth for the duration of the test. Treated plants and controls were maintained in a greenhouse for 13 to 15 days, after which time all species were compared to controls and visually evaluated. […] A dash (-) response means no test result.

[2] = system: ducksalad (Heteranthera limosa); experiment: as above; conditions: Flood, 250 g ai/ha; scale 0 to 100 (0 no effect, 100 complete control); 13 to 15 days
Excerpt: as §1

[3] = system: barnyardgrass (Echinochloa crus-galli); experiment: as above; conditions: Flood, 250 g ai/ha; scale 0 to 100 (0 no effect, 100 complete control); 13 to 15 days
Excerpt: as §1

rice (Oryza sativa) = experiment: as above; conditions: Flood, 250 g ai/ha; scale 0 to 100 (0 no effect, 100 complete control); 13 to 15 days
Excerpt: as §1

[4] = system: large (Lg) crabgrass (Digitaria sanguinalis); experiment: Test A pre-/postemergence greenhouse herbicide test, visual injury rating 0-100
In short: (§2)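 Visual injury scored on a 0–100 scale versus untreated controls roughly 10 days after treatment in greenhouse. Treatments were preemergence soil sprays plus postemergence sprays to plants 2–10 cm tall at one- to two-leaf stage, in a surfactant-containing solvent formulation.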

corn (Zea mays) = experiment: as above
In short: as §2

[5] = system: giant foxtail (Setaria faberii); experiment: as above
In short: as §2

[6] = system: wheat (Triticum aestivum); experiment: as above
In short: as §2

[7] = system: morningglory (Ipomoea spp.); experiment: as above
In short: as §2

[8] = system: pigweed (Amaranthus retroflexus); experiment: as above
In short: as §2

[9] = system: barnyardgrass (Echinochloa crus-galli); experiment: as above
In short: as §2

[10] = system: velvetleaf (Abutilon theophrasti); experiment: as above
In short: as §2

CCn1cc(C(=O)c2cccnc2)c(-c2cc(Cl)cc(Cl)c2)n1 [Compound 7]
Plant response rating, Sedge, Umbrella [1]: 0 | Plant response rating, Ducksalad [2]: 0 | Plant response rating, Barnyardgrass [3]: 0 | Plant response rating, Rice (rice (Oryza sativa)): 0 | Plant response rating (0 to 100 scale), Crabgrass, Large ([4]; Postemergence, 125 g ai/ha): 0 | Plant response rating (0 to 100 scale), Crabgrass, Large ([4]; Postemergence, 500 g ai/ha): 0 | Crabgrass, Large plant response rating (0 = no effect, 100 = complete control) ([4]; Preemergence, 125 g ai/ha): 0 | Plant response rating (0 to 100 scale), Crabgrass, Large ([4]; Preemergence, 500 g ai/ha): 0 | Plant response rating (0 to 100 scale), Corn (corn (Zea mays); Postemergence, 125 g ai/ha): 0 | Plant response rating (0 to 100 scale), Corn (corn (Zea mays); Postemergence, 500 g ai/ha): 0 | Corn plant response rating (0 = no effect, 100 = complete control) (corn (Zea mays); Preemergence, 125 g ai/ha): 0 | Plant response rating (0 to 100 scale), Corn (corn (Zea mays); Preemergence, 500 g ai/ha): 0 | Plant response rating (0 to 100 scale), Foxtail, Giant ([5]; Postemergence, 125 g ai/ha): 0 | Plant response rating (0 to 100 scale), Foxtail, Giant ([5]; Postemergence, 500 g ai/ha): 0 | Foxtail, Giant plant response rating (0 = no effect, 100 = complete control) ([5]; Preemergence, 125 g ai/ha): 0 | Plant response rating (0 to 100 scale), Foxtail, Giant ([5]; Preemergence, 500 g ai/ha): 0 | Plant response rating (0 to 100 scale), Wheat ([6]; Postemergence, 125 g ai/ha): 0 | Plant response rating (0 to 100 scale), Wheat ([6]; Postemergence, 500 g ai/ha): 0 | Wheat plant response rating (0 = no effect, 100 = complete control) ([6]; Preemergence, 125 g ai/ha): 0 | Plant response rating (0 to 100 scale), Wheat ([6]; Preemergence, 500 g ai/ha): 0 | Plant response rating (0 to 100 scale), Morningglory ([7]; Postemergence, 125 g ai/ha): 0 | Plant response rating (0 to 100 scale), Morningglory ([7]; Postemergence, 500 g ai/ha): 0 | Morningglory plant response rating (0 = no effect, 100 = complete control) ([7]; Preemergence, 125 g ai/ha): 0 | Plant response rating (0 to 100 scale), Morningglory ([7]; Preemergence, 500 g ai/ha): 0 | Plant response rating (0 to 100 scale), Pigweed ([8]; Postemergence, 125 g ai/ha): 40 | Plant response rating (0 to 100 scale), Pigweed ([8]; Postemergence, 500 g ai/ha): 70 | Pigweed plant response rating (0 = no effect, 100 = complete control) ([8]; Preemergence, 125 g ai/ha): 20 | Plant response rating (0 to 100 scale), Pigweed ([8]; Preemergence, 500 g ai/ha): 60 | Plant response rating (0 to 100 scale), Barnyardgrass ([9]; Postemergence, 125 g ai/ha): 0 | Plant response rating (0 to 100 scale), Barnyardgrass ([9]; Postemergence, 500 g ai/ha): 0 | Barnyardgrass plant response rating (0 = no effect, 100 = complete control) ([9]; Preemergence, 125 g ai/ha): 0 | Plant response rating (0 to 100 scale), Barnyardgrass ([9]; Preemergence, 500 g ai/ha): 0 | Plant response rating (0 to 100 scale), Velvetleaf ([10]; Postemergence, 125 g ai/ha): 50 | Plant response rating (0 to 100 scale), Velvetleaf ([10]; Postemergence, 500 g ai/ha): 70 | Velvetleaf plant response rating (0 = no effect, 100 = complete control) ([10]; Preemergence, 125 g ai/ha): 0 | Plant response rating (0 to 100 scale), Velvetleaf ([10]; Preemergence, 500 g ai/ha): 50

CCn1cc(C(=O)c2ccccc2)c(-c2cc(F)cc(Cl)c2)n1 [Compound 46]
Plant response rating, Sedge, Umbrella [1]: 0 | Plant response rating, Ducksalad [2]: 0 | Plant response rating, Barnyardgrass [3]: 0 | Plant response rating, Rice (rice (Oryza sativa)): 0 | Plant response rating (0 to 100 scale), Crabgrass, Large ([4]; Postemergence, 1000 g ai/ha): 0 | Plant response rating (0 to 100 scale), Crabgrass, Large ([4]; Preemergence, 1000 g ai/ha): 0 | Plant response rating (0 to 100 scale), Corn (corn (Zea mays); Postemergence, 1000 g ai/ha): 0 | Plant response rating (0 to 100 scale), Corn (corn (Zea mays); Preemergence, 1000 g ai/ha): 0 | Plant response rating (0 to 100 scale), Foxtail, Giant ([5]; Postemergence, 1000 g ai/ha): 0 | Plant response rating (0 to 100 scale), Foxtail, Giant ([5]; Preemergence, 1000 g ai/ha): 0 | Plant response rating (0 to 100 scale), Wheat ([6]; Postemergence, 1000 g ai/ha): 0 | Plant response rating (0 to 100 scale), Wheat ([6]; Preemergence, 1000 g ai/ha): 0 | Plant response rating (0 to 100 scale), Pigweed ([8]; Postemergence, 1000 g ai/ha): 90 | Plant response rating (0 to 100 scale), Pigweed ([8]; Preemergence, 1000 g ai/ha): 100 | Plant response rating (0 to 100 scale), Barnyardgrass ([9]; Postemergence, 1000 g ai/ha): 0 | Plant response rating (0 to 100 scale), Barnyardgrass ([9]; Preemergence, 1000 g ai/ha): 0 | Plant response rating (0 to 100 scale), Velvetleaf ([10]; Postemergence, 1000 g ai/ha): 90 | Plant response rating (0 to 100 scale), Velvetleaf ([10]; Preemergence, 1000 g ai/ha): 90

Cn1cc(C(=O)c2ccccc2)c(-c2cc(F)cc(Cl)c2)n1 [Compound 47]
Plant response rating, Sedge, Umbrella [1]: 0 | Plant response rating, Ducksalad [2]: 0 | Plant response rating, Barnyardgrass [3]: 0 | Plant response rating, Rice (rice (Oryza sativa)): 0 | Plant response rating (0 to 100 scale), Crabgrass, Large ([4]; Postemergence, 1000 g ai/ha): 0 | Plant response rating (0 to 100 scale), Crabgrass, Large ([4]; Preemergence, 1000 g ai/ha): 0 | Plant response rating (0 to 100 scale), Corn (corn (Zea mays); Postemergence, 1000 g ai/ha): 0 | Plant response rating (0 to 100 scale), Corn (corn (Zea mays); Preemergence, 1000 g ai/ha): 0 | Plant response rating (0 to 100 scale), Foxtail, Giant ([5]; Postemergence, 1000 g ai/ha): 0 | Plant response rating (0 to 100 scale), Foxtail, Giant ([5]; Preemergence, 1000 g ai/ha): 0 | Plant response rating (0 to 100 scale), Wheat ([6]; Postemergence, 1000 g ai/ha): 0 | Plant response rating (0 to 100 scale), Wheat ([6]; Preemergence, 1000 g ai/ha): 0 | Plant response rating (0 to 100 scale), Pigweed ([8]; Postemergence, 1000 g ai/ha): 90 | Plant response rating (0 to 100 scale), Pigweed ([8]; Preemergence, 1000 g ai/ha): 80 | Plant response rating (0 to 100 scale), Barnyardgrass ([9]; Postemergence, 1000 g ai/ha): 0 | Plant response rating (0 to 100 scale), Barnyardgrass ([9]; Preemergence, 1000 g ai/ha): 0 | Plant response rating (0 to 100 scale), Velvetleaf ([10]; Postemergence, 1000 g ai/ha): 90 | Plant response rating (0 to 100 scale), Velvetleaf ([10]; Preemergence, 1000 g ai/ha): 90
